Measurements from patent US12077503B2, “Substituted cyclic amides and their use as herbicides” (FMC CORPORATION, priority 2015, dated 2024).
Read-outs that look alike come from different tables or passages of the source.

Experiments:
Assay in all cases: Test A preemergence
Assay type in all cases: in vivo
[1] = system: barnyardgrass (Echinochloa crus-galli); conditions: Echinochloa crus-galli, pre-emergence, 240 h; for pest or weed control at 500 g/ha: 500 g ai/ha; for pest or weed control at 125 g/ha: 125 g ai/ha
In short: (§1)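 Greenhouse, ~10 d after spray; visual injury vs untreated controls, 0 = no effect, 100 = complete control. Preemergence: directed soil spray over planted seeds. Postemergence: plants 2–10 cm, 1–2 leaf stage. Loam/sand blend. Compound in non-phytotoxic solvent with surfactant.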

[2] = system: ryegrass, Italian (Italian ryegrass, Lolium multiflorum); conditions: Lolium multiflorum, pre-emergence, 240 h; for pest or weed control at 125 g/ha: 125 g ai/ha; for pest or weed control at 500 g/ha: 500 g ai/ha
In short: as §1

[3] = system: ragweed (common ragweed, Ambrosia elatior); conditions: Ambrosia artemisiifolia, pre-emergence, 240 h; for pest or weed control at 500 g/ha: 500 g ai/ha; for pest or weed control at 125 g/ha: 125 g ai/ha
In short: as §1

Kochia (Kochia scoparia) = conditions: Bassia scoparia, pre-emergence, 240 h; for pest or weed control at 500 g/ha: 500 g ai/ha; for pest or weed control at 125 g/ha: 125 g ai/ha
In short: as §1

[4] = system: pigweed (Amaranthus retroflexus); conditions: Amaranthus retroflexus, pre-emergence, 240 h; for pest or weed control at 500 g/ha: 500 g ai/ha; for pest or weed control at 125 g/ha: 125 g ai/ha
[5] = system: giant foxtail (Setaria faberii); conditions: Setaria faberi, pre-emergence, 240 h; for pest or weed control at 500 g/ha: 500 g ai/ha; for pest or weed control at 125 g/ha: 125 g ai/ha
In short: as §1

[6] = preemergence, 0 to 100 scale where 0 is no effect and 100 is complete control, read-out: Barnyardgrass plant response rating
[7] = Preemergence, 0 to 100 scale (0 no effect, 100 complete control), read-out: Plant response rating, Barnyardgrass
[8] = Preemergence, 0 to 100 scale (0 no effect, 100 complete control), read-out: Plant response rating, Ryegrass, Italian
[9] = preemergence, 0 to 100 scale where 0 is no effect and 100 is complete control, read-out: Ragweed plant response rating
[10] = Preemergence, 0 to 100 scale (0 no effect, 100 complete control), read-out: Plant response rating, Ragweed
[11] = preemergence, 0 to 100 scale where 0 is no effect and 100 is complete control, read-out: Kochia plant response rating
[12] = Preemergence, 0 to 100 scale (0 no effect, 100 complete control), read-out: Plant response rating, Kochia
[13] = preemergence, 0 to 100 scale where 0 is no effect and 100 is complete control, read-out: Pigweed plant response rating
[14] = Preemergence, 0 to 100 scale (0 no effect, 100 complete control), read-out: Plant response rating, Pigweed
[15] = preemergence, 0 to 100 scale where 0 is no effect and 100 is complete control, read-out: Foxtail, Giant plant response rating
[16] = Preemergence, 0 to 100 scale (0 no effect, 100 complete control), read-out: Plant response rating, Foxtail, Giant
[17] = preemergence, visual injury rating, 0 to 100 scale where 0 is no effect and 100 is complete control, approximately 10 d, read-out: Barnyardgrass plant response rating
[18] = preemergence, visual injury rating, 0 to 100 scale where 0 is no effect and 100 is complete control, approximately 10 d, read-out: Ryegrass, Italian plant response rating
[19] = preemergence, 0 to 100 scale where 0 is no effect and 100 is complete control, read-out: Ryegrass, Italian plant response rating
[20] = preemergence, visual injury rating, 0 to 100 scale where 0 is no effect and 100 is complete control, approximately 10 d, read-out: Ragweed plant response rating
[21] = preemergence, visual injury rating, 0 to 100 scale where 0 is no effect and 100 is complete control, approximately 10 d, read-out: Kochia plant response rating
[22] = preemergence, visual injury rating, 0 to 100 scale where 0 is no effect and 100 is complete control, approximately 10 d, read-out: Pigweed plant response rating
[23] = preemergence, visual injury rating, 0 to 100 scale where 0 is no effect and 100 is complete control, approximately 10 d, read-out: Foxtail, Giant plant response rating
[24] = preemergence, visual rating after approx. 10 d, 0 to 100 scale where 0 is no effect and 100 is complete control, read-out: Plant response rating, Barnyardgrass
[25] = preemergence, visual rating after approx. 10 d, 0 to 100 scale where 0 is no effect and 100 is complete control, read-out: Plant response rating, Ryegrass, Italian
[26] = preemergence, visual rating after approx. 10 d, 0 to 100 scale where 0 is no effect and 100 is complete control, read-out: Plant response rating, Ragweed
[27] = preemergence, visual rating after approx. 10 d, 0 to 100 scale where 0 is no effect and 100 is complete control, read-out: Plant response rating, Kochia
[28] = preemergence, visual rating after approx. 10 d, 0 to 100 scale where 0 is no effect and 100 is complete control, read-out: Plant response rating, Pigweed
[29] = preemergence, visual rating after approx. 10 d, 0 to 100 scale where 0 is no effect and 100 is complete control, read-out: Plant response rating, Foxtail, Giant

Structure (SMILES): CN1C[C@H](c2cccc(C(C)(F)F)c2)[C@@H](C(=O)Nc2cccc(F)c2F)C1=O [Compound 1316]
- pest or weed control at 500 g/ha [1, 6]: 90%
- pest or weed control at 125 g/ha [1, 7]: 90%
- pest or weed control at 125 g/ha [2, 8]: 70%
- pest or weed control at 500 g/ha [3, 9]: 70%
- pest or weed control at 125 g/ha [3, 10]: 0%
- pest or weed control at 500 g/ha (Kochia (Kochia scoparia); [11]): 80%
- pest or weed control at 125 g/ha (Kochia (Kochia scoparia); [12]): 80%
- pest or weed control at 500 g/ha [4, 13]: 80%
- pest or weed control at 125 g/ha [4, 14]: 70%
- pest or weed control at 500 g/ha [5, 15]: 90%
- pest or weed control at 125 g/ha [5, 16]: 90%

Structure (SMILES): CN1C[C@H](c2cccc(C(F)(F)F)c2)[C@@H](C(=O)Nc2ccc(F)c(F)c2F)C1=O [Compound 1389]
- pest or weed control at 500 g/ha ([1]; preemergence, 0 to 100 scale (0 no effect, 100 complete control), read-out: Plant response rating, Barnyardgrass): 100%
- pest or weed control at 125 g/ha [1, 7]: 100%
- pest or weed control at 500 g/ha ([2]; preemergence, 0 to 100 scale (0 no effect, 100 complete control), read-out: Plant response rating, Ryegrass, Italian): 90%
- pest or weed control at 125 g/ha [2, 8]: 80%
- pest or weed control at 500 g/ha ([3]; preemergence, 0 to 100 scale (0 no effect, 100 complete control), read-out: Plant response rating, Ragweed): 30%
- pest or weed control at 125 g/ha [3, 10]: 0%
- pest or weed control at 500 g/ha (Kochia (Kochia scoparia); preemergence, 0 to 100 scale (0 no effect, 100 complete control), read-out: Plant response rating, Kochia): 90%
- pest or weed control at 125 g/ha (Kochia (Kochia scoparia); [12]): 70%
- pest or weed control at 500 g/ha ([4]; preemergence, 0 to 100 scale (0 no effect, 100 complete control), read-out: Plant response rating, Pigweed): 80%
- pest or weed control at 125 g/ha [4, 14]: 70%
- pest or weed control at 500 g/ha ([5]; preemergence, 0 to 100 scale (0 no effect, 100 complete control), read-out: Plant response rating, Foxtail, Giant): 100%
- pest or weed control at 125 g/ha [5, 16]: 100%

Structure (SMILES): Cc1ccc([C@H]2CCN(C)C(=O)[C@@H]2C(=O)Nc2cccc(F)c2F)cc1 [Compound 1220]
- pest or weed control at 125 g/ha [1, 17]: 90%
- pest or weed control at 500 g/ha [1, 6]: 90%
- pest or weed control at 125 g/ha [2, 18]: 30%
- pest or weed control at 500 g/ha [2, 19]: 50%
- pest or weed control at 125 g/ha [3, 20]: 30%
- pest or weed control at 500 g/ha [3, 9]: 40%
- pest or weed control at 125 g/ha (Kochia (Kochia scoparia); [21]): 40%
- pest or weed control at 500 g/ha (Kochia (Kochia scoparia); [11]): 50%
- pest or weed control at 125 g/ha [4, 22]: 20%
- pest or weed control at 500 g/ha [4, 13]: 40%
- pest or weed control at 125 g/ha [5, 23]: 90%
- pest or weed control at 500 g/ha [5, 15]: 90%

Structure (SMILES): Cc1cc([C@H]2CNC(=O)[C@@H]2C(=O)Nc2cccc(F)c2F)ccc1Cl [Compound 790]
- pest or weed control at 125 g/ha [1, 24]: 90%
- pest or weed control at 500 g/ha ([1]; Preemergence, visual injury vs untreated controls after approximately 10 d, read-out: Barnyardgrass plant response rating (0 to 100 scale where 0 is no effect and 100 is complete control)): 90%
- pest or weed control at 125 g/ha [2, 25]: 30%
- pest or weed control at 500 g/ha ([2]; Preemergence, visual injury vs untreated controls after approximately 10 d, read-out: Ryegrass, Italian plant response rating (0 to 100 scale where 0 is no effect and 100 is complete control)): 70%
- pest or weed control at 125 g/ha [3, 26]: 20%
- pest or weed control at 500 g/ha ([3]; Preemergence, visual injury vs untreated controls after approximately 10 d, read-out: Ragweed plant response rating (0 to 100 scale where 0 is no effect and 100 is complete control)): 60%
- pest or weed control at 125 g/ha (Kochia (Kochia scoparia); [27]): 70%
- pest or weed control at 500 g/ha (Kochia (Kochia scoparia); Preemergence, visual injury vs untreated controls after approximately 10 d, read-out: Kochia plant response rating (0 to 100 scale where 0 is no effect and 100 is complete control)): 80%
- pest or weed control at 125 g/ha [4, 28]: 0%
- pest or weed control at 500 g/ha ([4]; Preemergence, visual injury vs untreated controls after approximately 10 d, read-out: Pigweed plant response rating (0 to 100 scale where 0 is no effect and 100 is complete control)): 40%
- pest or weed control at 125 g/ha [5, 29]: 70%
- pest or weed control at 500 g/ha ([5]; Preemergence, visual injury vs untreated controls after approximately 10 d, read-out: Foxtail, Giant plant response rating (0 to 100 scale where 0 is no effect and 100 is complete control)): 90%

Structure (SMILES): CN1C[C@H](c2ccc3c(c2)CCO3)[C@@H](C(=O)Nc2ccc(F)c(F)c2F)C1=O [Compound 1323]
- pest or weed control at 500 g/ha [1, 6]: 90%
- pest or weed control at 125 g/ha [1, 7]: 90%
- pest or weed control at 125 g/ha [2, 8]: 20%
- pest or weed control at 500 g/ha [3, 9]: 70%
- pest or weed control at 125 g/ha [3, 10]: 0%
- pest or weed control at 500 g/ha (Kochia (Kochia scoparia); [11]): 90%
- pest or weed control at 125 g/ha (Kochia (Kochia scoparia); [12]): 80%
- pest or weed control at 500 g/ha [4, 13]: 40%
- pest or weed control at 125 g/ha [4, 14]: 0%
- pest or weed control at 500 g/ha [5, 15]: 90%
- pest or weed control at 125 g/ha [5, 16]: 90%

Structure (SMILES): CSc1ccccc1NC(=O)[C@H]1C(=O)N(C)C[C@@H]1c1ccc(C)c(C)c1 [Compound 733]
- pest or weed control at 125 g/ha [1, 24]: 90%
- pest or weed control at 500 g/ha ([1]; preemergence, 0 to 100 scale, 0 = no effect, 100 = complete control, read-out: Plant response rating, Barnyardgrass): 100%
- pest or weed control at 125 g/ha [2, 25]: 40%
- pest or weed control at 500 g/ha ([2]; preemergence, 0 to 100 scale, 0 = no effect, 100 = complete control, read-out: Plant response rating, Ryegrass, Italian): 60%
- pest or weed control at 125 g/ha [3, 26]: 70%
- pest or weed control at 500 g/ha ([3]; preemergence, 0 to 100 scale, 0 = no effect, 100 = complete control, read-out: Plant response rating, Ragweed): 80%
- pest or weed control at 125 g/ha (Kochia (Kochia scoparia); [27]): 20%
- pest or weed control at 500 g/ha (Kochia (Kochia scoparia); preemergence, 0 to 100 scale, 0 = no effect, 100 = complete control, read-out: Plant response rating, Kochia): 80%
- pest or weed control at 125 g/ha [4, 28]: 20%
- pest or weed control at 500 g/ha ([4]; preemergence, 0 to 100 scale, 0 = no effect, 100 = complete control, read-out: Plant response rating, Pigweed): 60%
- pest or weed control at 125 g/ha [5, 29]: 90%
- pest or weed control at 500 g/ha ([5]; preemergence, 0 to 100 scale, 0 = no effect, 100 = complete control, read-out: Plant response rating, Foxtail, Giant): 90%

Structure (SMILES): Cc1ccc([C@H]2CNC(=O)[C@@H]2C(=O)Nc2c(F)cccc2F)cc1C [Compound 1247]
- pest or weed control at 125 g/ha [1, 17]: 70%
- pest or weed control at 500 g/ha [1, 6]: 90%
- pest or weed control at 125 g/ha [2, 18]: 0%
- pest or weed control at 500 g/ha [2, 19]: 20%
- pest or weed control at 125 g/ha [3, 20]: 0%
- pest or weed control at 500 g/ha [3, 9]: 0%
- pest or weed control at 125 g/ha (Kochia (Kochia scoparia); [21]): 0%
- pest or weed control at 500 g/ha (Kochia (Kochia scoparia); [11]): 30%
- pest or weed control at 125 g/ha [4, 22]: 0%
- pest or weed control at 500 g/ha [4, 13]: 0%
- pest or weed control at 125 g/ha [5, 23]: 20%
- pest or weed control at 500 g/ha [5, 15]: 80%
